According to US3953604A, “1-(2-Substituted-chromonyloxy)-2-hydroxy-3-(substituted phenoxy)propanes” (priority 1973, dated 1976):
Values joined by “and” are separate entries in the source; they are usually repeats but may differ in a detail not shown here. Equal values may be shown once. Where a name gives a salt, the structure may show the parent alone.

Experiments:
[1] = system: passive cutaneous anaphylaxis; experiment: duration of antiallergic activity by the PCA test, compared directly with DSCG; type: in vivo; conditions: rat; for Mean Reaction Diameters in Milimeters After 25 μ moles/kg of Test Compound: 25 μ moles/kg test compound 10 minutes before egg albumin antigen, groups of 10 animals
Description: (§1) The intensity of such PCA reaction is assessed by measuring the diameters of wheals which develop in the skin of the test animal. Details of the PCA test can be found in the following references: I. Motar, Life Sciences, 1:465 (1963); and B. Ogilvie, Immunology, 12:113 (1967).
The duration of antiallergic activity of compounds representative of the above examples was also determined by the PCA test described in Example 66. In each case, 25 μ moles of the test compound were administered 10 minutes before injection of the egg albumin antigen in rats. The following table reports the mean reactions diameters of wheals in milimeters for the compounds described in the above Examples and disodium cromoglycate (DSCG). In order to achieve maxium significance of results, the effect of each compound was compared directly with DSCG using groups of 10 animals selected at random from the same population.

[2] = system: allergic bronchial asthma; conditions: in vivo; cited from earlier work
[3] = acute toxicity tests, intravenous, animals observed for one week; conditions: in vivo, rat, dose is the maximum possible, limited by solubility, read-out: Therapeutic Ratio (Dose/ID50)
Description: Acute toxicity of compounds representative of the above Examples was determined in rats. The test compounds were administered intravenously in either 40 ml/kg of physiological saline or […] and saline. Compounds which are insoluble in saline were administered in […] and saline. Doses administered represent the maximun dose possible and are limited by solubility factors. ID50 in the table is used as defined in Example 66. Test compounds are identified by their respective Example Number, above.

[4] = system: passive cutaneous anaphylaxis; experiment: passive cutaneous anaphylaxis test (PCA), egg albumin as the antigen: antiallergic activity; type: in vivo; conditions: iv; rat; injected intravenously together with the antigen; at least 3 groups of 5 rats; read-out: ID50 (dose which reduced the diameter of the wheel by 50%)
Description: Compounds representative of the above examples were evaluated for antiallergic activity in the rat by the passive cutaneous anaphylaxis test (hereafter PCA), utilizing egg albumin as the antigen.
as §1
In the following table, ID50 is the dose which reduced the diameter of the wheel by 50% when injected intravenously together with the antigen. At least 3 groups of 5 rats were used to determine the ID50 for each compound tested. The reference compound utilized was disodium chromoglycate (DSCG). The test compounds are identified by their respective Example Numbers above.

O=C(O)c1cc(=O)c2c(OCC(O)COc3cccc4oc(C(=O)O)cc(=O)c34)cccc2o1 [DSCG, 1,3-di(2-carboxy-4-oxochromon-5-yloxy)-2-hydroxy-propane disodium salt, reference compound]
Mean Reaction Diameters in Milimeters After 25 μ moles/kg of DSCG ([1]; 25 μ moles/kg DSCG 10 minutes before egg albumin antigen, direct comparison with the test compound of the same line, disodium salt): 13.4 ± 0.3 Milimeters and 10.6 ± 0.7 Milimeters and 9.7 ± 0.3 Milimeters and 8.9 ± 0.8 Milimeters and 8.6 ± 0.3 Milimeters and 12.3 ± 0.2 Milimeters | untoward side effects [2]: several untoward side effects | selectivity ratio at 168 h [3]: > 1150

O=C(O)c1cc(=O)c2c(OCC(O)COc3ccccc3)cccc2o1 (centres unmarked) [Example 4, 1-(2-Carboxychromon-5-yloxy)-2-Hydroxy-3-Phenoxypropane Sodium Salt]
ED50 [4]: 6.25 µmol/kg | Mean Reaction Diameters in Milimeters After 25 μ moles/kg of Test Compound [1]: 13.0 ± 0.3 Milimeters | selectivity ratio at 168 h [3]: > 339

O=C(O)c1cc(=O)c2c(OCC(O)COc3ccc(Br)cc3)cccc2o1 (centres unmarked) [Example 8, 1-(2-Carboxychromon-5-yloxy)-2-Hydroxy-3-p-Bromophenoxypropane Sodium Salt]
ED50 [4]: 6.5 µmol/kg | Mean Reaction Diameters in Milimeters After 25 μ moles/kg of Test Compound [1]: 6.4 ± 0.4 Milimeters | selectivity ratio at 168 h [3]: > 40

O=C(O)c1cc(=O)c2c(OCC(O)COc3ccc(Cl)cc3)cccc2o1 (centres unmarked) [Example 11, 1-(2-Carboxychromon-5-yloxy)-2-Hydroxy-3-p-Chlorophenoxypropane]
ED50 [4]: 5.5 µmol/kg | Mean Reaction Diameters in Milimeters After 25 μ moles/kg of Test Compound [1]: 2.8 ± 0.4 Milimeters | selectivity ratio at 168 h [3]: > 43

COc1ccc(OCC(O)COc2cccc3oc(C(=O)O)cc(=O)c23)cc1 (centres unmarked) [Example 15, 1-(2-Carboxychromon-5-yloxy)-2-Hydroxy-3-p-Methoxyphenoxypropane Sodium Salt]
ED50 [4]: 20 µmol/kg | Mean Reaction Diameters in Milimeters After 25 μ moles/kg of Test Compound [1]: 11.0 ± 0.5 Milimeters | selectivity ratio at 168 h [3]: > 62

Cc1ccccc1OCC(O)COc1cccc2oc(C(=O)O)cc(=O)c12 (centres unmarked) [Example 19, 1-(2-Carboxychromon-5-yloxy)-2-Hydroxy-3-o-Cresyloxypropane Sodium Salt]
ED50 [4]: 7 µmol/kg | Mean Reaction Diameters in Milimeters After 25 μ moles/kg of Test Compound [1]: 10.3 ± 0.2 Milimeters | selectivity ratio at 168 h [3]: > 281

CCOC(=O)c1cc(=O)c2c(OCC(O)COc3ccc(C#N)cc3)cccc2o1 (centres unmarked) [Example 34, 1-(2-Carbethoxychromon-5-yloxy)-2-Hydroxy-3-p-Cyanophenoxypropane]
ED50 [4]: 2.5 µmol/kg | selectivity ratio at 168 h [3]: > 84

N#Cc1ccc(OCC(O)COc2cccc3oc(C(=O)O)cc(=O)c23)cc1 (centres unmarked) [Example 35, 1-(2-Carboxychromon-5-yloxy)-2-Hydroxy-3-p-Cyanophenoxypropane Sodium Salt]
ED50 [4]: 0.75 µmol/kg | Mean Reaction Diameters in Milimeters After 25 μ moles/kg of Test Compound [1]: 8.9 ± 0.7 Milimeters | selectivity ratio at 168 h [3]: > 3170

O=C(O)c1cc(=O)c2c(OCC(O)COc3ccc([N+](=O)[O-])cc3)cccc2o1 (centres unmarked) [Example 38, 1-(2-Carboxychromon-5-yloxy)-2-Hydroxy-3-p-Nitrophenoxypropane Sodium Salt]
ED50 [4]: 3.6 µmol/kg | Mean Reaction Diameters in Milimeters After 25 μ moles/kg of Test Compound [1]: 11.2 ± 0.3 Milimeters | selectivity ratio at 168 h [3]: > 173

O=C(O)c1cc(=O)c2ccc(OCC(O)COc3ccccc3)cc2o1 (centres unmarked) [Example 41, 1-(2-Carboxychromon-7-yloxy)-2-Hydroxy-3-Phenoxypropane Sodium Salt]
ED50 [4]: 14 µmol/kg

CCOC(=O)c1ccc(OCC(O)COc2cccc3oc(C(=O)O)cc(=O)c23)cc1 (centres unmarked) [Example 44, 1-(2-Carboxychromon-5-yloxy)-2-Hydroxy-3-p-Carbethoxyphenoxypropane Sodium Salt]
ED50 [4]: 8.25 µmol/kg | Mean Reaction Diameters in Milimeters After 25 μ moles/kg of Test Compound [1]: 6.1 ± 0.4 Milimeters

CC(=O)c1c(O)cccc1OCC(O)COc1cccc(C(F)(F)F)c1 (centres unmarked) [Example 57, 1-(2-Acetyl-3-hydroxphenoxy)-2-Hydroxy-3-(m-trifluoromethylphenoxy) propane]
Mean Reaction Diameters in Milimeters After 25 μ moles/kg of Test Compound [1]: 8.4 ± 0.5 Milimeters

O=C(O)c1cc(=O)c2c(OCC(O)COc3ccc(Cl)cc3Cl)cccc2o1 (centres unmarked) [Example 62, 1-(2-Carboxychromon-5-yloxy)-2-Hydroxy-3-(2,4-dichlorophenoxy) propane Sodium Salt]
Mean Reaction Diameters in Milimeters After 25 μ moles/kg of Test Compound [1]: 1.3 ± 0.5 Milimeters

O=C(O)c1cc(=O)c2c(OCC(O)COc3ccc(F)cc3)cccc2o1 (centres unmarked) [Example 65, 1-(2-Carboxychromon-5-yloxy)-2-Hydroxy-3-(p-fluorophenoxy)propane Sodium Salt]
Mean Reaction Diameters in Milimeters After 25 μ moles/kg of Test Compound [1]: 12.2 ± 0.2 Milimeters
